Experimental data reported in US9738634B2, “Heterocyclic amide compound and herbicide” (SYNGENTA PARTICIPATIONS AG, priority 2013, dated 2017).

Legend:
Type in all cases: in vivo
Settings in all cases: treatment dosage 320 g/ha
black-grass [1] = assay: Test Example 3: weedkilling efficacy through soil treatment; H: black-grass
Procedure, shortened: (§1)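 Crop and weed responses were judged three weeks after a uniform surface spray of the water-diluted emulsion at the given g/ha rate. Seeds sat beneath about 1.5 cm of sterilized diluvial soil, and boxes stood in a greenhouse at 25 to 30° C.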

beet [2] = assay: Test Example 4: foliar treatment, effect on crop; f: beet
Procedure, shortened: (§2)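 Seeds are spot-sown into sterilized diluvial soil and covered with about 1.5 cm of soil. After 14 days' greenhouse growth at 25 to 30° C, plants are sprayed on stems and leaves with diluted emulsion at the stated g/ha rate, then scored at 3 weeks.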

transplanted rice = assay: Test Example 1: preemergent weed treatment in the submerged state, effect on crop; a: transplanted rice
Procedure, shortened: (§3)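 Alluvial soil in Wagner pots flooded to 4 cm; barnyard grass, bulrush and oval-leafed pondweed seeds sown, then 2.5-leaf rice seedlings transplanted. Same day, emulsified compound diluted in water to set g/ha dosages and applied to water surface; greenhouse 25–30 °C, effect scored by criteria after 3 weeks.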

corn [3] = assay: Test Example 3: soil treatment, effect on crop; c: corn
Procedure, shortened: as §1

catchweed [4] = assay: Test Example 4: weedkilling efficacy by foliar treatment; O: catchweed
Procedure, shortened: as §2

Indian mallow [5] = assay: Test Example 3: weedkilling efficacy through soil treatment; K: Indian mallow
Procedure, shortened: as §1

green foxtail [6] = assay: Test Example 3: weedkilling efficacy through soil treatment; E: green foxtail
Procedure, shortened: as §1

beet [7] = assay: Test Example 3: soil treatment, effect on crop; f: beet
Procedure, shortened: as §1

Indian mallow [8] = assay: Test Example 4: weedkilling efficacy by foliar treatment; K: Indian mallow
Procedure, shortened: as §2

crabgrass [9] = assay: Test Example 3: weedkilling efficacy through soil treatment; D: crabgrass
Procedure, shortened: as §1

chickweed [10] = assay: Test Example 4: weedkilling efficacy by foliar treatment; N: chickweed
Procedure, shortened: as §2

rapeseed [11] = assay: Test Example 3: soil treatment, effect on crop; g: rapeseed
Procedure, shortened: as §1

green foxtail [12] = assay: Test Example 4: weedkilling efficacy by foliar treatment; E: green foxtail
Procedure, shortened: as §2

wheat [13] = assay: Test Example 4: foliar treatment, effect on crop; e: wheat
Procedure, shortened: as §2

barnyard grass [14] = assay: Test Example 1: weedkilling efficacy, preemergent weed treatment in the submerged state; A: barnyard grass
Procedure, shortened: as §3

fig-leafed goosefoot [15] = assay: Test Example 3: weedkilling efficacy through soil treatment; M: fig-leafed goosefoot
Procedure, shortened: as §1

fig-leafed goosefoot [16] = assay: Test Example 4: weedkilling efficacy by foliar treatment; M: fig-leafed goosefoot
Procedure, shortened: as §2

birds-eye speedwell = assay: Test Example 4: weedkilling efficacy by foliar treatment; p: birds-eye speedwell
Procedure, shortened: as §2

soybean [17] = assay: Test Example 3: soil treatment, effect on crop; d: soybean
Procedure, shortened: as §1

chickweed [18] = assay: Test Example 3: weedkilling efficacy through soil treatment; N: chickweed
Procedure, shortened: as §1

corn [19] = assay: Test Example 4: foliar treatment, effect on crop; c: corn
Procedure, shortened: as §2

bulrush [20] = assay: Test Example 1: weedkilling efficacy, preemergent weed treatment in the submerged state; B: bulrush
Procedure, shortened: as §3

oval-leafed pondweed [21] = assay: Test Example 1: weedkilling efficacy, preemergent weed treatment in the submerged state; C: oval-leafed pondweed
Procedure, shortened: as §3

soybean [22] = assay: Test Example 4: foliar treatment, effect on crop; d: soybean
Procedure, shortened: as §2

bulrush [23] = assay: Test Example 2: weedkilling efficacy, growth period weed treatment in the submerged state; B: bulrush
Procedure, shortened: (§4)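 First, alluvial soil in pots is flooded to 4 cm and mixed seed is sown. Next, plants grow in a greenhouse at 25 to 30° C until the 1-2 leaf stage. Then diluted emulsion is applied onto the water surface at the given g/ha rate, and injury is assessed after 3 weeks.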

barnyard grass [24] = assay: Test Example 2: weedkilling efficacy, growth period weed treatment in the submerged state; A: barnyard grass
Procedure, shortened: as §4

directly sown rice [25] = assay: Test Example 4: foliar treatment, effect on crop; b: directly sown rice
Procedure, shortened: as §2

wild oat [26] = assay: Test Example 3: weedkilling efficacy through soil treatment; G: wild oat
Procedure, shortened: as §1

directly sown rice [27] = assay: Test Example 3: soil treatment, effect on crop; b: directly sown rice
Procedure, shortened: as §1

Italian ryegrass [28] = assay: Test Example 3: weedkilling efficacy through soil treatment; I: Italian ryegrass
Procedure, shortened: as §1

barnyard grass [29] = assay: Test Example 4: weedkilling efficacy by foliar treatment; F: barnyard grass
Procedure, shortened: as §2

crabgrass [30] = assay: Test Example 4: weedkilling efficacy by foliar treatment; D: crabgrass
Procedure, shortened: as §2

black-grass [31] = assay: Test Example 4: weedkilling efficacy by foliar treatment; H: black-grass
Procedure, shortened: as §2

redroot pigweed [32] = assay: Test Example 3: weedkilling efficacy through soil treatment; L: redroot pigweed
Procedure, shortened: as §1

barnyard grass [33] = assay: Test Example 3: weedkilling efficacy through soil treatment; F: barnyard grass
Procedure, shortened: as §1

rapeseed [34] = assay: Test Example 4: foliar treatment, effect on crop; g: rapeseed
Procedure, shortened: as §2

oval-leafed pondweed [35] = assay: Test Example 2: weedkilling efficacy, growth period weed treatment in the submerged state; C: oval-leafed pondweed
Procedure, shortened: as §4

catchweed [36] = assay: Test Example 3: weedkilling efficacy through soil treatment; O: catchweed
Procedure, shortened: as §1

common wind-grass [37] = assay: Test Example 3: weedkilling efficacy through soil treatment; J: common wind-grass
Procedure, shortened: as §1

Italian ryegrass [38] = assay: Test Example 4: weedkilling efficacy by foliar treatment; I: Italian ryegrass
Procedure, shortened: as §2

common wind-grass [39] = assay: Test Example 4: weedkilling efficacy by foliar treatment; J: common wind-grass
Procedure, shortened: as §2

wild oat [40] = assay: Test Example 4: weedkilling efficacy by foliar treatment; G: wild oat
Procedure, shortened: as §2

wheat [41] = assay: Test Example 3: soil treatment, effect on crop; e: wheat
Procedure, shortened: as §1

redroot pigweed [42] = assay: Test Example 4: weedkilling efficacy by foliar treatment; L: redroot pigweed
Procedure, shortened: as §2

## CC1=C(c2ccccc2)C(=O)N(C(C)(C)C(=O)Nc2cc(-c3ccc(F)nc3)ccn2)CO1 [B-5-01]
black-grass [1]
  H (black-grass) weedkilling efficacy grade: 0 (weed kill ratio 5% or less (practically no effect))
Beet [2]
  f (beet) effect on crop grade: 0 (weed kill ratio 5% or less (practically no effect))
Transplanted rice
  a (transplanted rice) effect on crop grade: 0 (weed kill ratio 5% or less (practically no effect))
Corn [3]
  c (corn) effect on crop grade: 0 (weed kill ratio 5% or less (practically no effect))
Catchweed [4]
  O (catchweed) weedkilling efficacy grade: 1 (weed kill ratio 5% or more, less than 20%)
Indian mallow [5]
  K (Indian mallow) weedkilling efficacy grade: 0 (weed kill ratio 5% or less (practically no effect))
Green foxtail [6]
  E (green foxtail) weedkilling efficacy grade: 2 (weed kill ratio 20% or more, less than 40%)
Beet [7]
  f (beet) effect on crop grade: 0 (weed kill ratio 5% or less (practically no effect))
Indian mallow [8]
  K (Indian mallow) weedkilling efficacy grade: 0 (weed kill ratio 5% or less (practically no effect))
Crabgrass [9]
  D (crabgrass) weedkilling efficacy grade: 0 (weed kill ratio 5% or less (practically no effect))
Chickweed [10]
  N (chickweed) weedkilling efficacy grade: 0 (weed kill ratio 5% or less (practically no effect))
Rapeseed [11]
  g (rapeseed) effect on crop grade: 0 (weed kill ratio 5% or less (practically no effect))
Green foxtail [12]
  E (green foxtail) weedkilling efficacy grade: 0 (weed kill ratio 5% or less (practically no effect))
Wheat [13]
  e (wheat) effect on crop grade: 0 (weed kill ratio 5% or less (practically no effect))
Barnyard grass [14]
  A (barnyard grass) weedkilling efficacy grade: 4 (weed kill ratio 70% or more, less than 90%)
fig-leafed goosefoot [15]
  M (fig-leafed goosefoot) weedkilling efficacy grade: 0 (weed kill ratio 5% or less (practically no effect))
fig-leafed goosefoot [16]
  M (fig-leafed goosefoot) weedkilling efficacy grade: 3 (weed kill ratio 40% or more, less than 70%)
birds-eye speedwell
  P (birds-eye speedwell) weedkilling efficacy grade: 3 (weed kill ratio 40% or more, less than 70%)
Soybean [17]
  d (soybean) effect on crop grade: 0 (weed kill ratio 5% or less (practically no effect))
Chickweed [18]
  N (chickweed) weedkilling efficacy grade: 0 (weed kill ratio 5% or less (practically no effect))
Corn [19]
  c (corn) effect on crop grade: 0 (weed kill ratio 5% or less (practically no effect))
Bulrush [20]
  B (bulrush) weedkilling efficacy grade: 5 (weed kill ratio 90% or more, (practically complete withering))
oval-leafed pondweed [21]
  C (oval-leafed pondweed) weedkilling efficacy grade: 4 (weed kill ratio 70% or more, less than 90%)
Soybean [22]
  d (soybean) effect on crop grade: 0 (weed kill ratio 5% or less (practically no effect))
Bulrush [23]
  B (bulrush) weedkilling efficacy grade: 3 (weed kill ratio 40% or more, less than 70%)
Barnyard grass [24]
  A (barnyard grass) weedkilling efficacy grade: 3 (weed kill ratio 40% or more, less than 70%)
Directly sown rice [25]
  b (directly sown rice) effect on crop grade: 0 (weed kill ratio 5% or less (practically no effect))
Wild oat [26]
  G (wild oat) weedkilling efficacy grade: 0 (weed kill ratio 5% or less (practically no effect))
Directly sown rice [27]
  b (directly sown rice) effect on crop grade: 0 (weed kill ratio 5% or less (practically no effect))
Italian ryegrass [28]
  I (Italian ryegrass) weedkilling efficacy grade: 0 (weed kill ratio 5% or less (practically no effect))
Barnyard grass [29]
  F (barnyard grass) weedkilling efficacy grade: 0 (weed kill ratio 5% or less (practically no effect))
Crabgrass [30]
  D (crabgrass) weedkilling efficacy grade: 0 (weed kill ratio 5% or less (practically no effect))
black-grass [31]
  H (black-grass) weedkilling efficacy grade: 0 (weed kill ratio 5% or less (practically no effect))
Redroot pigweed [32]
  L (redroot pigweed) weedkilling efficacy grade: 0 (weed kill ratio 5% or less (practically no effect))
Barnyard grass [33]
  F (barnyard grass) weedkilling efficacy grade: 0 (weed kill ratio 5% or less (practically no effect))
Rapeseed [34]
  g (rapeseed) effect on crop grade: 0 (weed kill ratio 5% or less (practically no effect))
oval-leafed pondweed [35]
  C (oval-leafed pondweed) weedkilling efficacy grade: 4 (weed kill ratio 70% or more, less than 90%)
Catchweed [36]
  O (catchweed) weedkilling efficacy grade: 0 (weed kill ratio 5% or less (practically no effect))
Common wind-grass [37]
  J (common wind-grass) weedkilling efficacy grade: 4 (weed kill ratio 70% or more, less than 90%)
Italian ryegrass [38]
  I (Italian ryegrass) weedkilling efficacy grade: 0 (weed kill ratio 5% or less (practically no effect))
Common wind-grass [39]
  J (common wind-grass) weedkilling efficacy grade: 0 (weed kill ratio 5% or less (practically no effect))
Wild oat [40]
  G (wild oat) weedkilling efficacy grade: 0 (weed kill ratio 5% or less (practically no effect))
Wheat [41]
  e (wheat) effect on crop grade: 0 (weed kill ratio 5% or less (practically no effect))
Redroot pigweed [42]
  L (redroot pigweed) weedkilling efficacy grade: 0 (weed kill ratio 5% or less (practically no effect))
